Source: patent publication US11053204B2, “Pyrimidinyloxy benzene derivatives as herbicides” (FMC Corporation, priority 2015, dated 2021)

Key:
Format in all cases: in vivo
[1] = tested on: morningglory (Ipomoea coccinea); experiment: Test C preemergence, plant response rating; details: Preemergence
How it was run: (§1)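 After sowing in loam–sand blend or silt loam, pots were sprayed preemergence; separately grown 1- to 4-leaf plants were sprayed postemergence. Following 13 to 15 d under greenhouse conditions, injury was rated visually on a 0 to 100 scale.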

[2] = tested on: soybean (Glycine max); experiment: Test C preemergence, plant response rating; details: Preemergence
How it was run: as §1

[3] = tested on: waterhemp (common waterhemp, Amaranthus rudis); experiment: Test C preemergence, plant response rating; details: Preemergence
How it was run: as §1

[4] = tested on: wheat (winter wheat, Triticum aestivum); experiment: Test C preemergence, plant response rating; details: Preemergence
How it was run: as §1

[5] = tested on: blackgrass (Alopecurus myosuroides); experiment: Test C preemergence, plant response rating; details: Preemergence
How it was run: as §1

[6] = tested on: ryegrass, Italian (Italian ryegrass, Lolium multiflorum); experiment: Test C preemergence, plant response rating; details: Preemergence
How it was run: as §1

[7] = tested on: foxtail, giant (giant foxtail, Setaria faberii); experiment: Test C preemergence, plant response rating; details: Preemergence
How it was run: as §1

[8] = tested on: crabgrass, large (large crabgrass, Digitaria sanguinalis); experiment: Test C preemergence, plant response rating; details: Preemergence
How it was run: as §1

[9] = tested on: nutsedge, yellow (yellow nutsedge, Cyperus esculentus); experiment: Test C preemergence, plant response rating; details: Preemergence
How it was run: as §1

[10] = tested on: oilseed rape (Brassica napus); experiment: Test C preemergence, plant response rating; details: Preemergence
How it was run: as §1

[11] = tested on: corn (Zea mays); experiment: Test C preemergence, plant response rating; details: Preemergence
How it was run: as §1

[12] = tested on: lambsquarters (Chenopodium album); experiment: Test C preemergence, plant response rating; details: Preemergence
How it was run: as §1

[13] = tested on: velvetleaf (Abutilon theophrasti); experiment: Test C preemergence, plant response rating; details: Preemergence
How it was run: as §1

[14] = tested on: soybean (Glycine max); experiment: Test C postemergence, plant response rating; details: for Soybean plant response rating: scale 0 to 100 (0 no effect, 100 complete control)
How it was run: as §1

[15] = tested on: galium (catchweed bedstraw, Galium aparine); experiment: Test C postemergence, plant response rating; details: for Galium plant response rating: scale 0 to 100 (0 no effect, 100 complete control)
How it was run: as §1

[16] = tested on: waterhemp (common waterhemp, Amaranthus rudis); experiment: Test C postemergence, plant response rating
How it was run: as §1

[17] = tested on: foxtail, giant (giant foxtail, Setaria faberii); experiment: Test C postemergence, plant response rating; details: for Foxtail, Giant plant response rating: scale 0 to 100 (0 no effect, 100 complete control)
How it was run: as §1

[18] = tested on: crabgrass, large (large crabgrass, Digitaria sanguinalis); experiment: Test C postemergence, plant response rating; details: for Crabgrass, Large plant response rating: scale 0 to 100 (0 no effect, 100 complete control)
How it was run: as §1

[19] = tested on: kochia (Kochia scoparia); experiment: Test C postemergence, plant response rating; details: for Kochia plant response rating: scale 0 to 100 (0 no effect, 100 complete control)
How it was run: as §1

[20] = tested on: oilseed rape (Brassica napus); experiment: Test C postemergence, plant response rating; details: for Oilseed Rape plant response rating: scale 0 to 100 (0 no effect, 100 complete control)
How it was run: as §1

[21] = tested on: corn (Zea mays); experiment: Test C postemergence, plant response rating; details: for Corn plant response rating: scale 0 to 100 (0 no effect, 100 complete control)
How it was run: as §1

## CCCCC(=O)c1c(Oc2ncc(Cl)cn2)cccc1C(F)(F)F [Compound 130]
[1]; 125 g ai/ha, scale of 0 to 100
  Plant response rating, Morningglory: 10
[1]; 31 g ai/ha, scale 0 to 100
  Plant response rating, Morningglory: 5
[1]; 62 g ai/ha, scale 0 to 100
  Plant response rating, Morningglory: 20
[2]; 125 g ai/ha, scale of 0 to 100
  Plant response rating, Soybean: 30
[2]; 31 g ai/ha, scale 0 to 100
  Plant response rating, Soybean: 0
[2]; 62 g ai/ha, scale 0 to 100
  Plant response rating, Soybean: 10
[3]; 125 g ai/ha, scale of 0 to 100
  Plant response rating, Waterhemp: 100
[3]; 31 g ai/ha, scale 0 to 100
  Plant response rating, Waterhemp: 100
[3]; 62 g ai/ha, scale 0 to 100
  Plant response rating, Waterhemp: 100
[4]; 125 g ai/ha, scale of 0 to 100
  Plant response rating, Wheat: 0
[4]; 31 g ai/ha, scale 0 to 100
  Plant response rating, Wheat: 0
[4]; 62 g ai/ha, scale 0 to 100
  Plant response rating, Wheat: 5
[5]; 125 g ai/ha, scale of 0 to 100
  Plant response rating, Blackgrass: 85
[5]; 16 g ai/ha, scale 0 to 100
  Plant response rating, Blackgrass: 30
[5]; 31 g ai/ha, scale 0 to 100
  Plant response rating, Blackgrass: 30
[5]; 62 g ai/ha, scale 0 to 100
  Plant response rating, Blackgrass: 60
[6]; 125 g ai/ha, scale of 0 to 100
  Plant response rating, Ryegrass, Italian: 70
[6]; 31 g ai/ha, scale 0 to 100
  Plant response rating, Ryegrass, Italian: 35
[6]; 62 g ai/ha, scale 0 to 100
  Plant response rating, Ryegrass, Italian: 60
[7]; 125 g ai/ha, scale of 0 to 100
  Plant response rating, Foxtail, Giant: 100
[7]; 31 g ai/ha, scale 0 to 100
  Plant response rating, Foxtail, Giant: 70
[7]; 62 g ai/ha, scale 0 to 100
  Plant response rating, Foxtail, Giant: 98
[8]; 125 g ai/ha, scale of 0 to 100
  Plant response rating, Crabgrass, Large: 100
[8]; 16 g ai/ha, scale 0 to 100
  Plant response rating, Crabgrass, Large: 98
[8]; 31 g ai/ha, scale 0 to 100
  Plant response rating, Crabgrass, Large: 100
[8]; 62 g ai/ha, scale 0 to 100
  Plant response rating, Crabgrass, Large: 100
[9]; 125 g ai/ha, scale of 0 to 100
  Plant response rating, Nutsedge, Yellow: 0
[9]; 31 g ai/ha, scale 0 to 100
  Plant response rating, Nutsedge, Yellow: 0
[9]; 62 g ai/ha, scale 0 to 100
  Plant response rating, Nutsedge, Yellow: 0
[10]; 125 g ai/ha, scale of 0 to 100
  Plant response rating, Oilseed Rape: 95
[10]; 31 g ai/ha, scale 0 to 100
  Plant response rating, Oilseed Rape: 10
[10]; 62 g ai/ha, scale 0 to 100
  Plant response rating, Oilseed Rape: 40
[11]; 125 g ai/ha, scale of 0 to 100
  Plant response rating, Corn: 25
[11]; 16 g ai/ha, scale 0 to 100
  Plant response rating, Corn: 5
[11]; 31 g ai/ha, scale 0 to 100
  Plant response rating, Corn: 0
[11]; 62 g ai/ha, scale 0 to 100
  Plant response rating, Corn: 5
[12]; 125 g ai/ha, scale of 0 to 100
  Plant response rating, Lambsquarters: 95
[12]; 31 g ai/ha, scale 0 to 100
  Plant response rating, Lambsquarters: 30
[12]; 62 g ai/ha, scale 0 to 100
  Plant response rating, Lambsquarters: 35
[13]; 125 g ai/ha, scale of 0 to 100
  Plant response rating, Velvetleaf: 85
[13]; 31 g ai/ha, scale 0 to 100
  Plant response rating, Velvetleaf: 10
[13]; 62 g ai/ha, scale 0 to 100
  Plant response rating, Velvetleaf: 75
[14]; 16 g ai/ha, scale of 0 to 100
  Plant response rating, Soybean: 40
[14]; 31 g ai/ha, scale 0 to 100
  Plant response rating, Soybean: 55
[14]; 62 g ai/ha
  Soybean plant response rating: 75
[14]; 125 g ai/ha
  Soybean plant response rating: 95
[15]; 16 g ai/ha, scale of 0 to 100
  Plant response rating, Galium: 75
[15]; 31 g ai/ha, scale 0 to 100
  Plant response rating, Galium: 80
[15]; 62 g ai/ha
  Galium plant response rating: 85
[15]; 125 g ai/ha
  Galium plant response rating: 80
[16]; 16 g ai/ha, scale of 0 to 100
  Plant response rating, Waterhemp: 65
[16]; 31 g ai/ha, scale 0 to 100
  Plant response rating, Waterhemp: 75
[16]; 125 g ai/ha, scale 0 to 100 (0 no effect, 100 complete control)
  Waterhemp plant response rating: 85
[17]; 16 g ai/ha, scale of 0 to 100
  Plant response rating, Foxtail, Giant: 10
[17]; 31 g ai/ha, scale 0 to 100
  Plant response rating, Foxtail, Giant: 10
[17]; 62 g ai/ha
  Foxtail, Giant plant response rating: 10
[17]; 125 g ai/ha
  Foxtail, Giant plant response rating: 30
[18]; 16 g ai/ha, scale of 0 to 100
  Plant response rating, Crabgrass, Large: 5
[18]; 31 g ai/ha, scale 0 to 100
  Plant response rating, Crabgrass, Large: 10
[18]; 62 g ai/ha
  Crabgrass, Large plant response rating: 10
[18]; 125 g ai/ha
  Crabgrass, Large plant response rating: 20
[19]; 16 g ai/ha, scale of 0 to 100
  Plant response rating, Kochia: 80
[19]; 31 g ai/ha, scale 0 to 100
  Plant response rating, Kochia: 85
[19]; 62 g ai/ha
  Kochia plant response rating: 95
[19]; 125 g ai/ha
  Kochia plant response rating: 98
[20]; 16 g ai/ha, scale of 0 to 100
  Plant response rating, Oilseed Rape: 70
[20]; 31 g ai/ha, scale 0 to 100
  Plant response rating, Oilseed Rape: 85
[20]; 62 g ai/ha
  Oilseed Rape plant response rating: 95
[20]; 125 g ai/ha
  Oilseed Rape plant response rating: 98
[21]; 16 g ai/ha, scale of 0 to 100
  Plant response rating, Corn: 10
[21]; 31 g ai/ha, scale 0 to 100
  Plant response rating, Corn: 20
[21]; 62 g ai/ha
  Corn plant response rating: 15
[21]; 125 g ai/ha
  Corn plant response rating: 20
